# Experiments:
# T7 RNA polymerase [1] = molecular target: T1, T7 RNA polymerase (Escherichia phage T7, UniProt P00573); assay: IVT capping rate of mRNA by LC-MS after RNase H cleavage; type: biochemical; details: for Capping rate: LC-MS of mRNA transcribed with the cap analog; for capping efficiency compared with Comparative Example 1 (in words): text summary of Table 4
# Procedure: (§1) In-vitro synthesis of mRNA cap analogs modified with vinylphosphonic acid: Firstly, a plasmid was linearized with NotI and digested at […] overnight. A DNA template was extracted. mRNAs were synthesized by in-vitro transcription using the vinylphosphonic acid-modified mRNA cap analogs of Examples 1-7 and compounds 10-13, 16, 17, 25, 31 and 34, and the cap analog of Comparative Example 1 as cap structures, respectively.
# (§2) Note: During the experiment, the volume of the materials required for the system was calculated firstly, and then sample loading was performed. Firstly, sterile enzyme-free water was added into the system, and then 10× buffer, NTPs, and the cap analog were sequentially added. The mixture was uniformly mixed and then gently centrifuged, followed by addition of the nuclease inhibitor, the inorganic pyrophosphatase, the T7 RNA polymerase, and the linearized DNA template. The mixture was well mixed, then gently centrifuged, and incubated at 37° C. After 2 h, DNase I (1 U) was added, and the mixture was incubated at 37° C. for another 30 min to remove the DNA template. RNA purification was then performed (usually using the magnetic bead purification method). The purified mRNA was dissolved in sterile enzyme-free water, and then quantitative detection was performed by using Nanodrop One.
# Liquid chromatography-mass spectrometry (LC-MS) was used to detect the IVT capping rates of mRNAs with different starting cap analogs. Firstly, a labeled (usually biotin-labeled) DNA probe matched with the starting base of mRNA as the transcript product was required to be designed, and streptavidin-labeled magnetic beads were washed, and then incubated with the synthesized DNA probe, mRNA and 10× RNase H reaction buffer with slowly mixing at room temperature for 30 min. 20 L of RNase H (5 U/μL) was then added, and the mixture was incubated at 37° C. for 3 h, with uniform mixing every half hour. After the incubation was completed, the magnetic beads were cleaned, and then 100 μL of 75% methanol heated to 80° C. was added to the cleaned magnetic beads. The mixture was heated to 80° C. on a heating plate, held for 3 min, and then placed on a magnetic rack. The supernatant was pipetted and dried at room temperature for 45 min to 10 Lby using an evaporation centrifuge. The sample was then resuspended in 50 μL of 100 μM EDTA/1% MeOH for LC-MS analysis to determine the capping of RNA in the transcription reaction. Due to the significant difference in molecular weight between capped and uncapped bases, the capping rates of mRNA transcription initiated with different cap analogs can be determined by using the difference in molecular weight.
# [2] = molecular target: eukaryotic initiation factor (elF4E) (Homo sapiens, UniProt P06730); assay: Assay of binding ability to eukaryotic initiation factor (elF4E), Biacore T100; details: cap analog to elF4E protein; running buffer pH 6.0 or 7.4; read-out: Binding constant (converted)
# Chain of eukaryotic initiation factor (elF4E) (P06730 whole entry): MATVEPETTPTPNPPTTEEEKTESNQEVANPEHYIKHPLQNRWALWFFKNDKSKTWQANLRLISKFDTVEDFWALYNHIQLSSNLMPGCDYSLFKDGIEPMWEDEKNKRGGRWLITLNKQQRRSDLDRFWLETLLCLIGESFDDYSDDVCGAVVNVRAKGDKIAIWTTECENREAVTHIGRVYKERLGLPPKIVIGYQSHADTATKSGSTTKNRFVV
# Procedure: Test method: Firstly, experimental samples, including the cap analog samples of Examples 1-7, compounds 10-13, 16, 17, 25, 31 and 34, and Comparative Example 1, were diluted with a running buffer (50 mM phosphate, 100 mM sodium chloride, and 0.01% vol/vol Tween 20, pH 6.0 or 7.4). The sample injection time was […], the sample injection flow rate was 20 L/min, and the dissociation time was […]. The residual samples were eluted with a regeneration buffer (10 mM HEPES, 150 mM NaCl, and 0.010% vol/vol Tween 20, pH 7.4) for 30 s at a flow rate of 30 μL/min. Finally, through analysis by Biacore T100 evaluation software (version 2.0.2), sensorgrams were generated and the binding constants were calculated.
# T7 RNA polymerase [3] = molecular target: T1, T7 RNA polymerase; assay: mRNA in-vitro transcription yield with cap analog (T7 IVT, Nanodrop One quantification); type: biochemical; details: for Yield: mRNA from 20 μL IVT system, 1 μl 100 mM cap analog, 1 μg template, 37° C. 2 h; for in-vitro transcription yield compared with Comparative Example 1 (in words): text summary of Table 4
# Procedure: as §1, §2
# T1 sequence (P00573 whole entry): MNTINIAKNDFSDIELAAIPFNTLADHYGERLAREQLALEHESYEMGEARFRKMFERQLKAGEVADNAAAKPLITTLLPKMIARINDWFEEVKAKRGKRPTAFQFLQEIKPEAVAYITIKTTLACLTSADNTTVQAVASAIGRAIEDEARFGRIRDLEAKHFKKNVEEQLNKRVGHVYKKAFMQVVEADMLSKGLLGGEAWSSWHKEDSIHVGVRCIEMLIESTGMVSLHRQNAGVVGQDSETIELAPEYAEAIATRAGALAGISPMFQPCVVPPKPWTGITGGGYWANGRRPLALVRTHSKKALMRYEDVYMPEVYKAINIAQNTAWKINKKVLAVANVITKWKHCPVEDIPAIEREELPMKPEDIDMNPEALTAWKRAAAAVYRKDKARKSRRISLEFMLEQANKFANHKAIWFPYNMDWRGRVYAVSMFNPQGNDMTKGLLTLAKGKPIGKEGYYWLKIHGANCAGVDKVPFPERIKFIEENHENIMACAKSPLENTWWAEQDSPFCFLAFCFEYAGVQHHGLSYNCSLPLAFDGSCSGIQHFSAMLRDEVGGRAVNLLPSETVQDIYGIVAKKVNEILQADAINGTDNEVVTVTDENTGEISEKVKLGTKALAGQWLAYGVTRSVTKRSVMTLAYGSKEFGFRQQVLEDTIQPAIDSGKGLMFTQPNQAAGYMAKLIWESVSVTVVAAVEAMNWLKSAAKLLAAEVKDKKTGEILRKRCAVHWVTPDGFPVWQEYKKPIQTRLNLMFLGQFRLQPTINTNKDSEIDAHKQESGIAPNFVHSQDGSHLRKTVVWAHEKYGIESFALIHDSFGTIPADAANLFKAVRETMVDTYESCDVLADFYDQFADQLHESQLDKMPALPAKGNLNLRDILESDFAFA
SMILES,Capping rate (T7 RNA polymerase [1]) [%],Kd [2] [nM],Yield (T7 RNA polymerase [3]) [µg],capping efficiency compared with Comparative Example 1 (in words) (T7 RNA polymerase [1]),in-vitro transcription yield compared with Comparative Example 1 (in words) (T7 RNA polymerase [3])
CCCC(=O)NCC1C(O)[C@H](n2c[n+](C)c3c(=O)[nH]c(N)nc32)O[C@@H]1/C=C/P(=O)(O)OP(=O)(O)OP(=O)(O)OC[C@H]1O[C@@H](n2cnc3c(N)ncnc32)C(OC)C1OP(=O)(O)OC[C@H]1O[C@@H](n2cnc3c(=O)[nH]c(N)nc32)C(O)C1O (stereo partly drawn) [Compound 34],95.9,236,117,–,–
COC1C(OP(=O)(O)/C=C/[C@H]2O[C@@H](n3cnc4c(=O)[nH]c(N)nc43)C(O)C2O)[C@@H](COP(=O)(O)OP(=O)(O)OP(=O)(O)OC[C@H]2O[C@@H](n3c[n+](C)c4c(=O)[nH]c(N)nc43)C(O)C2O)O[C@H]1n1cnc2c(N)ncnc21 (stereo partly drawn) [Example 1],96.4,313,117,–,–
COC1C(OP(=O)(O)OC[C@H]2O[C@@H](n3cnc4c(=O)[nH]c(N)nc43)C(O)C2O)[C@@H](COP(=O)(O)OP(=O)(O)OP(=O)(O)/C=C/[C@H]2O[C@@H](n3c[n+](C)c4c(=O)[nH]c(N)nc43)C(O)C2O)O[C@H]1n1cnc2c(N)ncnc21 (stereo partly drawn) [Example 2],96.3,216,125,–,–
COC1[C@@H](OP(=O)(O)OC[C@H]2O[C@@H](n3cnc4c(=O)[nH]c(N)nc43)C(O)[C@H]2O)[C@@H](/C=C\P(=O)(O)OP(=O)(O)OP(=O)(O)/C=C\[C@H]2O[C@@H](n3c[n+](C)c4c(=O)[nH]c(N)nc43)[C@@H](O)C2O)O[C@H]1n1cnc2c(N)ncnc21 (stereo partly drawn) [Example 5],90.2,395,102,significantly lower than those of Comparative Example 1,significantly lower than those of Comparative Example 1
COCC1C(O)[C@H](n2c[n+](C)c3c(=O)[nH]c(N)nc32)O[C@@H]1/C=C/P(=O)(O)OP(=O)(O)OP(=O)(O)OC[C@H]1O[C@@H](n2cnc3c(N)ncnc32)C(OC)C1OP(=O)(O)OC[C@H]1O[C@@H](n2cnc3c(=O)[nH]c(N)nc32)C(O)C1O (stereo partly drawn) [Compound 11],95.7,246,116,–,–
COC1C(OP(=O)(O)OC[C@H]2O[C@@H](n3ccc(=O)[nH]c3=O)C(O)C2O)[C@@H](COP(=O)(O)OP(=O)(O)OP(=O)(O)/C=C/[C@H]2O[C@@H](n3c[n+](C)c4c(=O)[nH]c(N)nc43)C(O)C2CNC(C)=O)O[C@H]1n1cnc2c(N)ncnc21 (stereo partly drawn) [Compound 17],96.2,222,122,–,–
COC1[C@@H](OP(=O)(O)/C=C/[C@H]2O[C@@H](n3cnc4c(=O)[nH]c(N)nc43)C(O)[C@H]2O)[C@@H](COP(=O)(O)OP(=O)(O)OP(=O)(O)/C=C\[C@H]2O[C@@H](n3c[n+](C)c4c(=O)[nH]c(N)nc43)[C@@H](O)C2O)O[C@H]1n1cnc2c(N)ncnc21 (stereo partly drawn) [Example 4],94.5,377,106,significantly lower than those of Comparative Example 1,significantly lower than those of Comparative Example 1
COC1[C@@H](OP(=O)(O)/C=C/[C@H]2O[C@@H](n3cnc4c(=O)[nH]c(N)nc43)C(O)[C@H]2O)[C@@H](/C=C\P(=O)(O)OP(=O)(O)OP(=O)(O)OC[C@H]2O[C@@H](n3c[n+](C)c4c(=O)[nH]c(N)nc43)[C@@H](O)C2O)O[C@H]1n1cnc2c(N)ncnc21 (stereo partly drawn) [Example 6],87.3,362,96,significantly lower than those of Comparative Example 1,significantly lower than those of Comparative Example 1
COC1C(OP(=O)(O)OC[C@H]2O[C@@H](n3cnc4c(=O)[nH]c(N)nc43)C(O)C2O)[C@@H](COP(=O)(O)OP(=O)(O)OP(=O)(O)/C=C/[C@H]2O[C@@H](n3c[n+](C)c4c(=O)[nH]c(N)nc43)C(F)C2O)O[C@H]1n1cnc2c(N)ncnc21 (stereo partly drawn) [Compound 16],95.8,269,114,–,–
COC1C(OP(=O)(O)OC[C@H]2O[C@@H](n3cnc4c(=O)[nH]c(N)nc43)C(O)C2O)[C@@H](COP(=O)(O)OP(=O)(O)OP(=O)(O)/C=C/[C@H]2O[C@@H](n3c[n+](C)c4c(=O)[nH]c(N)nc43)C(O)C2CNC(C)=O)O[C@H]1n1cnc2c(N)ncnc21 (stereo partly drawn) [Compound 12],96.6,214,123,–,–
COC1C(OP(=O)(O)OC[C@H]2O[C@@H](n3cnc4c(=O)[nH]c(N)nc43)C(O)C2O)[C@@H](/C=C\P(=O)(O)OP(=O)(O)OP(=O)(O)OC[C@H]2O[C@@H](n3c[n+](C)c4c(=O)[nH]c(N)nc43)C(O)C2CNC(C)=O)O[C@H]1n1cnc2c(N)ncnc21 (stereo partly drawn) [Compound 25],96.1,224,120,–,–
COC1C(OP(=O)(O)OC[C@H]2O[C@@H](n3cnc4c(=O)[nH]c(N)nc43)C(O)C2O)[C@@H](COP(=O)(O)OP(=O)(O)OP(=O)(O)/C=C/[C@H]2O[C@@H](n3c[n+](C)c4c(=O)[nH]c(N)nc43)CC2OC)O[C@H]1n1cnc2c(N)ncnc21 (stereo partly drawn) [Compound 13],95.4,265,112,–,–
COC1C(OP(=O)(O)OC[C@H]2O[C@@H](n3cnc4c(=O)[nH]c(N)nc43)C(O)C2O)[C@@H](/C=C/P(=O)(O)OP(=O)(O)OP(=O)(O)OC[C@H]2O[C@@H](n3c[n+](C)c4c(=O)[nH]c(N)nc43)C(O)C2O)O[C@H]1n1cnc2c(N)ncnc21 (stereo partly drawn) [Example 3],95.3,240,122,–,–
COC1C(OP(=O)(O)OC[C@H]2O[C@@H](n3cnc4c(=O)[nH]c(N)nc43)C(O)C2O)[C@@H](COP(=O)(O)OP(=O)(O)OP(=O)(O)/C=C/[C@H]2O[C@@H](n3c[n+](C)c4c(=O)[nH]c(N)nc43)C(O)C2CN(C)C(C)=O)O[C@H]1n1cnc2c(N)ncnc21 (stereo partly drawn) [Compound 31],95.7,239,115,–,–
COCCOC1C(O)[C@H](n2c[n+](C)c3c(=O)[nH]c(N)nc32)O[C@@H]1/C=C/P(=O)(O)OP(=O)(O)OP(=O)(O)OC[C@H]1O[C@@H](n2cnc3c(N)ncnc32)C(OC)C1OP(=O)(O)OC[C@H]1O[C@@H](n2cnc3c(=O)[nH]c(N)nc32)C(O)C1O (stereo partly drawn) [Compound 10],96.4,218,124,–,–
